Results as given in patent US20070286886A1, “Materials And Methods For Inducing Apoptosis In Adipocytes” (University of Tennessee Research Foundation, priority 2004, published 2007).
“Also recorded” adds a separate entry of the source.

Columns and labels:
Assay type in all cases: cell-based
[1] = test system: 3T3-L1 and UCP2-transfected 3T3-L1 cells; assay: Mitochondrial membrane potential (JC-1 fluorometry) in adipocytes; conditions: for mitochondrial potential: 4 h
Experimental: (§1) Adipocytes were incubated with adipocyte medium for 4 h with or without 1α,25-(OH)2-D3. Mitochondrial membrane potential was analyzed fluorometrically with a lipophilic cationic dye JC-1 (5,5′,6,6′-tetrachloro-1,1′,3,3′-tetraethylbenzimidazol carbocyanine iodide) using a mitochondrial potential detection kit (Biocarta, San Diego, Calif.). Mitochondrial potential was determined as the ratio of red fluorescence (excitation 550 nm, emission 600 nm) and green fluorescence (excitation 485 nm, emission 535 nm) using a fluorescence microplate reader.
as §1, with “GDP, BK 8644, GDP plus BK8644.” for “1α,25-(OH)2-D3.”

[2] = test system: 3T3-L1 and UCP2-transfected 3T3-L1 adipocytes; assay: Cytosolic/intracellular calcium (fura-2 dual-wavelength fluorescence imaging) in adipocytes
[3] = test system: 3T3-L1 and UCP2-transfected 3T3-L1 adipocytes; assay: Mitochondrial calcium (rhod-2 AM fluorescence) in adipocytes
Experimental: (§2) Rhod-2/AM was used for qualitative measurement of [Ca^2+]m. Cells were incubated with the Ca^2+-sensitive fluorescent indicator rhod-2 AM (1-1.5 μM) for at least 1 h at 37° C. in 5% CO2 in humidified air. Because rhod-2 AM consists of a cationic rhodamine molecule, it accumulates preferentially inside the mitochondria due to their negative membrane potential. After loading, the cells were kept in rhod-2 AM-free standard solution for at least 1 h to allow conversion of the dye to its Ca^2+-sensitive, free acid form. Images of [Ca^2+]m were acquired at the wavelength of 552 nm excitation and 590 nm emission using the intracellular imaging system described above. Because rhod-2 is not a ratiometric dye, its fluorescence intensity was not calibrated to obtain absolute values of [Ca^2+]m. Instead, only relative values were recorded as fluorescence signal (F) relative to the control value (F0). After baseline calcium concentration was measured, the 1α,25-(OH)2-D3 was immediately applied to the cells and the calcium concentration was measured again.
as §2, with “the Ca^2+ sensitive” for “the Ca^2+-sensitive”, “AM (1-1·5 μM),” for “AM (1-1.5 μM)”, “at 370 degrees Celsius” for “at 37° C.”, “air. Since” for “air. Because”, “above. Since” for “above. Because”, “(F0).” for “(F0). After baseline calcium concentration was measured, the 1α,25-(OH)2-D3 was immediately applied to the cells and the calcium concentration was measured again.”

Row | Structure (SMILES) | effect on mitochondrial potential ([1]; 3T3-L1 cells, BK8644 alone) | adipocyte Ca2+ influx / [Ca2+]i ([2]; 1 nM-100 nM, 3T3-L1 cells) | increases in [Ca2+]i ([2]; 3T3-L1 cells) | mitochondrial calcium ([3]; 3T3-L1 cells, p<0.05) | mitochondrial potential ([1]; high dose (100 nM)) | mitochondrial potential ([1]; lower doses, 3T3-L1 and UCP2 stably transfected 3T3-L1 cells) | mitochondrial Δψ in L1-UCP2 cells ([1]; physiological doses (0.1-10 nM), L1-UCP2 cells) | cytosolic calcium levels ([2]; 1 nM, 5 nM, 10 nM, 100 nM, control and UCP2-transfected cells) | increase in calcium influx, high dose relative to the lower doses ([2]; high dose (100 nM) vs lower doses) | mitochondrial calcium [Ca2+]m ([3]; high dose (100 nM)) | increase of mitochondrial Ca2+ ([3]; high dose (100 nM), P<0.05) | mitochondrial calcium [Ca2+]m ([3]; low doses (0.1 nM to 10 nM), control and UCP2-transfected cells) | suppression of mitochondrial Ca2+ levels ([3]; physiological doses (0.1-10 nM))
1 | COC(=O)C1=C(C)NC(C)=C([N+](=O)[O-])C1c1ccccc1C(F)(F)F (stereo not shown) [Bay K 8644] | no effect | dose-dependent | 3-4 fold | increased | – | – | – | – | – | – | – | – | –
2 | C=C1/C(=C\C=C2/CCC[C@]3(C)[C@@H]([C@H](C)CCCC(C)(C)O)CC[C@@H]23)C[C@@H](O)C[C@@H]1O [1α,25-(OH)2-D3, 1α,25-dihydroxyvitamin D3] | – | – | – | – | collapse | significantly increase | restored | dose-dependent increase; also recorded: dose-dependently | 10 fold | significantly stimulated | 25% | decreased; also recorded: significant decreases | ~50%
